*1 amine or outer side, *2 acyl side, *3 side chain or, on linkers, in order; H or OH if unused. Where a SMILES comes first, the peptide text is derived from it. Bridges are numbered along the chain shown (N, C = ends). [ ]: non-standard residue; d: D form. Phe(4-tBu) = CC(C)(C)c1ccc(C[C@H](N)C(=O)O)cc1; NMeR = CN[C@@H](CCCNC(=N)N)C(=O)O; β3hE = N[C@@H](CCC(=O)O)CC(=O)O; X1 = O=C(c1ccccc1C[*:2])[*:1]; Pen = CC(C)(S)[C@H](N)C(=O)O
Each compound was assayed against T1, RPMI 8866 cells (Homo sapiens, UniProt P13612+P26010) (assay: α4β7-MAdCAM Cell Adhesion Assay). Conditions: thioether monomer peptides, Table 6; read-out: Cell-Adhesion A4B7.
T1 sequence (P13612 34-1032): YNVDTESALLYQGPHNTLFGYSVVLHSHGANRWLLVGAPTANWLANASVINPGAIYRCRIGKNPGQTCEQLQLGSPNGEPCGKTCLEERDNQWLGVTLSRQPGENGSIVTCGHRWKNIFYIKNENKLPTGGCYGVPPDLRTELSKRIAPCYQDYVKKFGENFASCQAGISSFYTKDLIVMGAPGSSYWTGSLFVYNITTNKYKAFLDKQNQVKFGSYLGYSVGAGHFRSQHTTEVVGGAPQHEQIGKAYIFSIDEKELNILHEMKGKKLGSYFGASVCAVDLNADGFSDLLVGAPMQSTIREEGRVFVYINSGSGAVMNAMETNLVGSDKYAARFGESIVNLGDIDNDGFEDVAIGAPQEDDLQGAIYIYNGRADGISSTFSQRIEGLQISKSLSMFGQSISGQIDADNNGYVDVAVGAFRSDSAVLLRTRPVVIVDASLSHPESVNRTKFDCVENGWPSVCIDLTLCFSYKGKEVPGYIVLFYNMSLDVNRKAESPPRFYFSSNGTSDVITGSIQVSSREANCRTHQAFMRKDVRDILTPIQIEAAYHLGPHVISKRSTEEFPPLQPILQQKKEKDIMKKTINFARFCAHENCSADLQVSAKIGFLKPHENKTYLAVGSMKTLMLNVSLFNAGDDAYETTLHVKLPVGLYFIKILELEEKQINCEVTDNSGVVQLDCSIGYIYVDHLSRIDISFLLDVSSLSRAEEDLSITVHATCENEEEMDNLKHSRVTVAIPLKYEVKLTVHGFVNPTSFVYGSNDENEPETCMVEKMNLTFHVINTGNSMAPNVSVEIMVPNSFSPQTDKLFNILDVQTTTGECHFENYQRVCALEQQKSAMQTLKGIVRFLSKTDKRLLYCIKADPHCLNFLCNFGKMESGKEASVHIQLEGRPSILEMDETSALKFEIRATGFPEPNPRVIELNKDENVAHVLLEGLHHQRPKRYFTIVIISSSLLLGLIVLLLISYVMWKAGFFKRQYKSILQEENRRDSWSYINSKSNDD
T1 sequence (P26010 20-798): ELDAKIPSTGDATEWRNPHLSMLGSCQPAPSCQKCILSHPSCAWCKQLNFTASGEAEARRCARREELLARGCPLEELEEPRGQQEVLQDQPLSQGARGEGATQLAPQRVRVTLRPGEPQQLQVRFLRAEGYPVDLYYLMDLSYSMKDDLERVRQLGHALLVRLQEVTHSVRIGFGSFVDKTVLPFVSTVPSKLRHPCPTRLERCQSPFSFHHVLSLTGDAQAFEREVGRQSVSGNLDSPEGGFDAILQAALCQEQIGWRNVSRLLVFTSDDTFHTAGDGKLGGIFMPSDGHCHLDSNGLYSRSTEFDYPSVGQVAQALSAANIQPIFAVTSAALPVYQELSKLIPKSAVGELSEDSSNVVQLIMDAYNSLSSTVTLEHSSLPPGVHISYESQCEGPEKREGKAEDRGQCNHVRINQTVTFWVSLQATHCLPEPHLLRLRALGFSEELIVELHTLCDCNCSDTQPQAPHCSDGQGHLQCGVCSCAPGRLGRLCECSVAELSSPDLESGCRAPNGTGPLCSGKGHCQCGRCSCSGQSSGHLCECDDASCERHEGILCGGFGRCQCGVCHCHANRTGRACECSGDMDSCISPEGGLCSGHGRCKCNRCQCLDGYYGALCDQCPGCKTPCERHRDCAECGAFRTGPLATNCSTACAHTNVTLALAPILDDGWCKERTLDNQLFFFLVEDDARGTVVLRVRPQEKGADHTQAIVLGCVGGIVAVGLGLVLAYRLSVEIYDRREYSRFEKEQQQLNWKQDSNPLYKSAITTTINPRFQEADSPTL
Assay type: cell-based
Protocol: α4β7-MAdCAM Cell Adhesion Assay
RPMI 8866 cells (Sigma #95041316) were cultured in RPMI 1640 HEPES medium (Invitrogen #22400-089) supplemented with 10% serum (Fetal Bovine Serum, Invitrogen #16140-071), 1 mM sodium pyruvate (Invitrogen #11360-070), 2 mM L-glutamine (Invitrogen #25030-081) and Penicillin-Streptomycin (Invitrogen #15140-122) at 100 units of penicillin and 100 μg of streptomycin per ml. The cells were washed two times in DMEM medium (ATCC #30-2002) supplemented with 0.1% BSA, 10 mM HEPES pH 7 and 1 mM MnCl2. The cells were re-suspended in supplemented DMEM medium at a density of 4×10^6 cells/ml.
A Nunc MaxiSorp plate was coated with rh MAdCAM-1/Fc Chimera (R&D #6065-MC) at 200 ng per well in 50 ul per well in 1×PBS and incubated at 4° C. overnight. The solution was then removed by shaking, blocked with 250 ul per well PBS containing 1% BSA, and incubated at 37° C. for 1 hr. The solution was removed by shaking. Peptides were diluted by serial dilution in a final volume of 50 ul per well (2× concentration). To each well, 50 ul of cells (200,000 cells) were added and the plate was incubated at 37° C., 5% CO2 for 30-45 min to allow cell adhesion. The wells were washed manually three times (100 ul per wash) with supplemented DMEM. After the final wash, 100 μl/well of supplemented DMEM and 10 ul/well of MTT reagent (ATTC cat #30-1010K) were added. The plate was incubated at 37° C., 5% CO2 for 2-3 hrs until a purple precipitate is visible. 100 ul of Detergent Reagent (ATTC cat #30-1010K) was added to each well. The plate was covered from the light, wrapped in Parafilm to prevent evaporation, and left overnight at room temperature in the dark. The plate was shaken for 5 min and the absorbance at 570 nm is measured. To calculate the dose response, the absorbance value of control wells not containing cells was subtracted from each test well.

Compound `CC(C)C[C@@H]1NC(=O)[C@H]([C@@H](C)O)NC(=O)[C@H](CC(=O)O)NC(=O)[C@H](C)NC(=O)[C@H](CCCNC(=N)N)N(C)C(=O)c2ccccc2CSC(C)(C)[C@@H](C(=O)N[C@@H](Cc2ccc(C(C)(C)C)cc2)C(=O)N[C@@H](CCC(=O)O)CC(N)=O)NC1=O` [compound 139] ([NMeR]ADTL[Pen][Phe(4-tBu)][β3hE]-NH2; linker N-6 via X1) has an IC50 of 25 to 100 nM.

Same assay, conditions: thioether peptide dimers, Table 7; read-out: Cell-Adhesion A4B7

First: CC(C)C[C@@H]1NC(=O)[C@H]([C@@H](C)O)NC(=O)[C@H](CC(=O)O)NC(=O)[C@H](CO)NC(=O)[C@H](CCCNC(=N)N)N(C)C(=O)c2ccccc2CSC[C@@H](C(=O)N2Cc3ccccc3C[C@H]2C(=O)N[C@@H](Cc2ccc(-c3ccccc3)cc2)C(=O)N[C@H](CCCCN)C(N)=O)NC1=O [compound 205] (HELM PEPTIDE1{[meR].S.D.T.L.C.[Tic].[O=C([C@H](Cc1ccc(-c2ccccc2)cc1)N[*:1])[*:2]].[dK].[am]}|CHEM1{[O=C(c1ccccc1C[*:2])[*:1]]}$PEPTIDE1,CHEM1,1:R1-1:R1|PEPTIDE1,CHEM1,6:R3-1:R2$$$V2.0)
Second: CC(C)C[C@@H]1NC(=O)[C@H]([C@@H](C)O)NC(=O)[C@H](CC(=O)O)NC(=O)[C@H](CO)NC(=O)[C@H](CCCNC(=N)N)N(C)C(=O)c2ccccc2CSC(C)(C)[C@@H](C(=O)N[C@@H](Cc2c[nH]c3ccccc23)C(=O)N[C@H](CCC(=O)O)C(=O)N[C@H](CCC(=O)O)C(=O)N[C@H](CCCCN)C(N)=O)NC1=O [compound 200] (HELM PEPTIDE1{[meR].S.D.T.L.[Pen].W.[dE].[dE].[dK].[am]}|CHEM1{[O=C(c1ccccc1C[*:2])[*:1]]}$PEPTIDE1,CHEM1,1:R1-1:R1|PEPTIDE1,CHEM1,6:R3-1:R2$$$V2.0)
The IC50 of the first is higher: 100 to 1000 nM for the first, less than 25 nM for the second.

`CC(C)C[C@@H]1NC(=O)[C@H]([C@@H](C)O)NC(=O)[C@H](CC(=O)O)NC(=O)[C@H](CO)NC(=O)[C@H](CCCNC(=N)N)N(C)C(=O)c2ccccc2CSC(C)(C)[C@@H](C(=O)N[C@@H](Cc2c[nH]c3ccccc23)C(=O)N[C@H](CCC(=O)O)C(=O)N[C@@H](Cc2ccc(O)cc2)C(=O)N[C@H](CCCCN)C(N)=O)NC1=O` [compound 195] (HELM PEPTIDE1{[meR].S.D.T.L.[Pen].W.[dE].Y.[dK].[am]}|CHEM1{[O=C(c1ccccc1C[*:2])[*:1]]}$PEPTIDE1,CHEM1,1:R1-1:R1|PEPTIDE1,CHEM1,6:R3-1:R2$$$V2.0) and `CC(C)C[C@@H]1NC(=O)[C@H]([C@@H](C)O)NC(=O)[C@H](CC(=O)O)NC(=O)[C@H](CO)NC(=O)[C@H](CCCNC(=N)N)N(C)C(=O)c2ccccc2CSC(C)(C)[C@@H](C(=O)N[C@@H](Cc2c[nH]c3ccccc23)C(=O)N[C@H](CCC(=O)O)C(=O)N[C@H](Cc2ccccc2)C(=O)N[C@H](CCCCN)C(N)=O)NC1=O` [compound 198] (HELM PEPTIDE1{[meR].S.D.T.L.[Pen].W.[dE].[dF].[dK].[am]}|CHEM1{[O=C(c1ccccc1C[*:2])[*:1]]}$PEPTIDE1,CHEM1,1:R1-1:R1|PEPTIDE1,CHEM1,6:R3-1:R2$$$V2.0) cannot be ordered by IC50: less than 25 nM for the first, less than 25 nM for the second.

Compared with `CC(C)C[C@@H]1NC(=O)[C@H]([C@@H](C)O)NC(=O)[C@H](CC(=O)O)NC(=O)[C@H](CO)NC(=O)[C@H](CCCNC(=N)N)N(C)C(=O)c2ccccc2CSC(C)(C)[C@@H](C(=O)N[C@@H](Cc2c[nH]c3ccccc23)C(=O)N[C@H](CCC(=O)O)C(=O)N[C@@H](Cc2ccccc2)C(=O)N[C@H](CCCCN)C(N)=O)NC1=O` [compound 192] (HELM PEPTIDE1{[meR].S.D.T.L.[Pen].W.[dE].F.[dK].[am]}|CHEM1{[O=C(c1ccccc1C[*:2])[*:1]]}$PEPTIDE1,CHEM1,1:R1-1:R1|PEPTIDE1,CHEM1,6:R3-1:R2$$$V2.0), `CC(C)C[C@@H]1NC(=O)[C@H]([C@@H](C)O)NC(=O)[C@H](CC(=O)O)NC(=O)[C@H](CO)NC(=O)[C@H](CCCNC(=N)N)N(C)C(=O)c2ccccc2CSC(C)(C)[C@@H](C(=O)N[C@@H](Cc2ccc3ccccc3c2)C(=O)N[C@@H](Cc2ccc(-c3ccccc3)cc2)C(=O)N[C@H](CCCCN)C(N)=O)NC1=O` [compound 206] is higher in IC50: less than 25 nM for the first, greater than 1000 nM for the second.

First: CC(C)C[C@@H]1NC(=O)[C@H]([C@@H](C)O)NC(=O)[C@H](CC(=O)O)NC(=O)[C@H](CO)NC(=O)[C@H](CCCNC(=N)N)N(C)C(=O)c2ccccc2CSC[C@@H](C(=O)N[C@H](Cc2ccccc2)C(=O)N[C@H](CCC(=O)O)C(=O)N[C@H](CCCCN)C(N)=O)NC1=O [compound 187] (HELM PEPTIDE1{[meR].S.D.T.L.C.[dF].[dE].[dK].[am]}|CHEM1{[O=C(c1ccccc1C[*:2])[*:1]]}$PEPTIDE1,CHEM1,1:R1-1:R1|PEPTIDE1,CHEM1,6:R3-1:R2$$$V2.0)
Second: 181 (RSDTLXWEK; not fully specified; CROSSLINK - N-term 2-Benzyl with a thioether bond between the N-term and the residue at position 6; MOD_RES 1 N-Methyl Arginine; SITE 6 D-Penicillamine; SITE 9 D-Lys; SITE 9 C-term NH2) [compound 181]
The IC50 of the first is lower: 25 to 100 nM for the first, greater than 1000 nM for the second.

First: CC(C)C[C@@H]1NC(=O)[C@H]([C@@H](C)O)NC(=O)[C@H](CC(=O)O)NC(=O)[C@H](CO)NC(=O)[C@H](CCCNC(=N)N)N(C)C(=O)C(C)SC(C)(C)[C@@H](C(=O)N[C@@H](Cc2c[nH]c3ccccc23)C(=O)N[C@H](CCCCN)C(N)=O)NC1=O (single isomer, unassigned) [compound 148]
Second: CC(C)C[C@@H]1NC(=O)[C@H]([C@@H](C)O)NC(=O)[C@H](CC(=O)O)NC(=O)[C@H](CO)NC(=O)[C@H](CCCNC(=N)N)N(C)C(=O)c2ccccc2CSC(C)(C)[C@@H](C(=O)N[C@@H](Cc2c[nH]c3ccccc23)C(=O)N[C@H](CCC(=O)O)C(=O)N[C@H](CCCCN)C(N)=O)NC1=O [compound 212] (HELM PEPTIDE1{[meR].S.D.T.L.[Pen].W.[dE].[dK].[am]}|CHEM1{[O=C(c1ccccc1C[*:2])[*:1]]}$PEPTIDE1,CHEM1,1:R1-1:R1|PEPTIDE1,CHEM1,6:R3-1:R2$$$V2.0)
The IC50 of the first is higher: greater than 1000 nM for the first, 25 to 100 nM for the second.

Source: patent US20260217767A1, “NOVEL A4B7 THIOETHER PEPTIDE DIMER ANTAGONISTS” (Protagonist Therapeutics, Inc., priority 2014, published 2026)
